Each block holds one molecule with its values, some of them ahead of it. Calls of active or inactive are those of the source. The calls are words filed in the database; no cut-off is given here.
Assays:
[1] = species: Oryctolagus cuniculus; test: Positive inotropic activity in perfused beating rabbit atrium assessed as increase in stroke volume at 30 umol/l relative to control; type: functional, tissue-based; settings: Cardiac atrium
[2] = test system: Heart; test: Positive inotropic activity in rabbit heart assessed as increase in left atrium stroke volume at 3 X 10^-5 M; type: functional, Oryctolagus cuniculus, Cardiac atrium
[3] = species: Oryctolagus cuniculus; test: Positive inotropic activity in perfused rabbit atrium assessed as increase in stroke volume at 30 umol/l in presence of L-type Ca2+ channel blocker nifedipine relative to control; type: functional, tissue-based; settings: Cardiac atrium
[4] = species: Oryctolagus cuniculus; test: Positive inotropic activity in perfused rabbit atrium assessed as increase in stroke volume at 30 umol/l in presence of PKA inhibitor H-89 relative to control; type: functional, tissue-based; settings: Cardiac atrium
[5] = species: Oryctolagus cuniculus; test: Positive inotropic activity in perfused rabbit atrium assessed as increase in stroke volume at 1 X 10^-5 to 10^-4 M relative to control; settings: Cardiac atrium
[6] = species: Oryctolagus cuniculus; test: Positive inotropic activity in perfused rabbit atrium assessed as increase in stroke volume at 30 umol/l in presence of adenylate cyclase activator forskolin relative to control; type: functional, tissue-based; settings: Cardiac atrium
[7] = Oryctolagus cuniculus, Cardiac atrium

Structure (SMILES): O=C(c1ccc(Cl)cc1)N1CCN(c2nn3cnnc3c3ccccc23)CC1
Activity [1]: Active
Activity [2]: 13.33%

Structure (SMILES): O=C(c1ccc(Br)cc1)N1CCN(c2nn3nnnc3c3ccccc23)CC1
Activity [1]: Active
Activity [2]: 7.49%

Structure (SMILES): COc1cccc(/C=C/C(=O)N2CCN(c3nn4cnnc4c4ccccc34)CC2)c1
Activity [1]: Active
Activity [2]: 4.13%

Structure (SMILES): O=C(c1cccc(Br)c1)N1CCN(c2nn3cnnc3c3ccccc23)CC1
Activity [1]: Active
Activity [2]: 8.49%

Structure (SMILES): O=C(c1ccc(F)cc1)N1CCN(c2nn3cnnc3c3ccccc23)CC1
Activity [1]: Active
Activity [2]: 2.91%

Structure (SMILES): COc1ccc(C(=O)N2CCN(c3nn4nnnc4c4ccccc34)CC2)cc1
Activity [1]: Active
Activity [2]: 9.39%

Structure (SMILES): O=C(/C=C/c1cccc(Br)c1)N1CCN(c2nn3nnnc3c3ccccc23)CC1
Activity [2, 7]: inactive

Structure (SMILES): O=C(c1cccc(Br)c1)N1CCN(c2nn3nnnc3c3ccccc23)CC1
Activity [2, 7]: inactive

Structure (SMILES): O=C(/C=C/c1ccc(Cl)cc1)N1CCN(c2nn3cnnc3c3ccccc23)CC1
Activity [2, 7]: inactive

Structure (SMILES): O=C(c1cccc(Cl)c1)N1CCN(c2nn3cnnc3c3ccccc23)CC1
Activity [1]: Active
Activity [2]: 2.56%

Structure (SMILES): O=C(/C=C/c1cccc(Br)c1)N1CCN(c2nn3cnnc3c3ccccc23)CC1
Activity [2, 7]: inactive

Structure (SMILES): O=C(c1ccccc1)N1CCN(c2nn3cnnc3c3ccccc23)CC1
Activity [2, 7]: inactive

Structure (SMILES): O=C(/C=C/c1ccc(Br)cc1)N1CCN(c2nn3nnnc3c3ccccc23)CC1
Activity [2, 7]: inactive

Structure (SMILES): COc1cccc(/C=C/C(=O)N2CCN(c3nn4nnnc4c4ccccc34)CC2)c1
Activity [1]: Active
Activity [2]: 5.35%

Activity [6]: Active
Structure (SMILES): Cc1ccc(C(=O)N2CCN(c3nn4cnnc4c4ccccc34)CC2)cc1
Activity [3]: inactive
Activity [4]: inactive
Activity [1]: Active
Activity [2]: 19.15%
Activity [5]: Active

Structure (SMILES): Cc1[nH]c(=O)c(C#N)cc1-c1ccncc1 [MILRINONE]
Activity [2]: 2.46%

Structure (SMILES): O=C(/C=C/c1ccc(F)cc1)N1CCN(c2nn3nnnc3c3ccccc23)CC1
Activity [2, 7]: inactive

Structure (SMILES): O=C(c1ccc(F)cc1)N1CCN(c2nn3nnnc3c3ccccc23)CC1
Activity [1]: Active
Activity [2]: 4.73%

Structure (SMILES): COc1cccc(C(=O)N2CCN(c3nn4nnnc4c4ccccc34)CC2)c1
Activity [2]: 1.94%

Structure (SMILES): O=C(/C=C/c1cccc(Cl)c1)N1CCN(c2nn3nnnc3c3ccccc23)CC1
Activity [2, 7]: inactive

Structure (SMILES): COc1cccc(C(=O)N2CCN(c3nn4cnnc4c4ccccc34)CC2)c1
Activity [2]: 0.95%

Structure (SMILES): O=C(/C=C/c1ccc(Br)cc1)N1CCN(c2nn3cnnc3c3ccccc23)CC1
Activity [2, 7]: inactive

Structure (SMILES): O=C(c1cccc(Cl)c1)N1CCN(c2nn3nnnc3c3ccccc23)CC1
Activity [2]: 0.23%

Structure (SMILES): Cc1ccc(/C=C/C(=O)N2CCN(c3nn4cnnc4c4ccccc34)CC2)cc1
Activity [1]: Active
Activity [2]: 14.87%
Activity [5]: Active

Structure (SMILES): COc1ccc(C(=O)N2CCN(c3nn4cnnc4c4ccccc34)CC2)cc1
Activity [1]: Active
Activity [2]: 3.68%

Structure (SMILES): O=C(/C=C/c1cccc(Cl)c1)N1CCN(c2nn3cnnc3c3ccccc23)CC1
Activity [2, 7]: inactive

Structure (SMILES): O=C(c1ccc(Cl)cc1)N1CCN(c2nn3nnnc3c3ccccc23)CC1
Activity [2]: 2.05%

Structure (SMILES): O=C(c1ccc(Br)cc1)N1CCN(c2nn3cnnc3c3ccccc23)CC1
Activity [1]: Active
Activity [2]: 3.65%

Structure (SMILES): O=C(/C=C/c1ccc(Cl)cc1)N1CCN(c2nn3nnnc3c3ccccc23)CC1
Activity [2, 7]: inactive

Structure (SMILES): O=C(/C=C/c1ccc(F)cc1)N1CCN(c2nn3cnnc3c3ccccc23)CC1
Activity [2, 7]: inactive

Structure (SMILES): COc1ccc(CN2CCN(c3nn4nnnc4c4ccccc34)CC2)cc1
Activity [2]: 12.02%

Structure (SMILES): Cc1ccc(/C=C/C(=O)N2CCN(c3nn4nnnc4c4ccccc34)CC2)cc1
Activity [1]: Active
Activity [2]: 2.74%

Structure (SMILES): O=C(/C=C/c1ccccc1)N1CCN(c2nn3nnnc3c3ccccc23)CC1
Activity [1]: Active
Activity [2]: 8.09%

Structure (SMILES): O=C(/C=C/c1ccccc1)N1CCN(c2nn3cnnc3c3ccccc23)CC1
Activity [2, 7]: inactive

Structure (SMILES): Cc1ccc(C(=O)N2CCN(c3nn4nnnc4c4ccccc34)CC2)cc1
Activity [1]: Active
Activity [2]: 13.46%

Structure (SMILES): O=C(c1ccccc1)N1CCN(c2nn3nnnc3c3ccccc23)CC1
Activity [2, 7]: inactive

Source: ChEMBL document CHEMBL3232771, “Synthesis and positive inotropic evaluation of [1,2,4]triazolo[3,4-a]phthalazine and tetrazolo[5,1-a]phthalazine derivatives bearing substituted piperazine moieties” (2014)
